Test results reported in US20210169871A1, “PHARMACEUTICAL COMPOSITIONS WITH REDUCED TERT-BUTANOL LEVELS” (TARVEDA THERAPEUTICS, INC., priority 2018, published 2021).
Marks after values point to notes of the source that are not given here.

Assays:
[1] = Stability of SDC-TRAP-0063 sodium with added excipients
[2] = pH-dependent lactone / open ring carboxylic acid equilibrium in solution; format: physicochemical
Text: In solution, SDC-TRAP-0063 contains a lactone ring at pH-dependent equilibrium with the corresponding open chain carboxylic acid form. At high pH (above pH of around 9) the equilibrium shifts toward an open ring carboxylic acid form and at low pH it shifts toward the closed ring lactone form.
During the manufacturing process, SDC-TRAP-0063 is converted to SDC-TRAP-0063 Sodium, which is the dominant form at pH above approximately 9.3. SDC-TRAP-0063 Sodium drug product is aseptically manufactured as a sterile-filtered solution that is lyophilized. […] There is minimal impact from annealing or secondary drying modifications on TBA level in SDC-TRAP-0063 Sodium drug product.

[3] = Residual moisture of lyophilized drug product; format: physicochemical; settings: 100 mg/mL, 30% TBA, 4% PEG 400; Standard cycle (Table 2)
[4] = Residual TBA in lyophilized drug product by gas chromatography (GC-HS); format: physicochemical; parameters: key to Residual TBA: TBA weight percentage in dry powder
Experimental: SDC-TRAP-0063 synthesized in Example 1 was dissolved in an alkaline co-solvent system comprising 30% (by volume) tert-butanol (TBA) and water to obtain a drug solution. Various polyols, such as PEG, glycerol and propylene glycol (PG), were added to the drug solution in vials prior to the standard lyophilization cycle (freezing→annealing→primary drying→secondary drying). Dry powder drug products comprising SDC-TRAP-0063 sodium were obtained. TBA weight percentages in the dry powders were measured by gas chromatography (GC-HS) (Table 1).

[5] = pH, testing of lyophilized drug product; format: physicochemical
[6] = Residual TBA in lyophilized drug product by gas chromatography (GC-HS); format: physicochemical; parameters: key: TBA weight percentage in dry powder; settings: 100 mg/mL
[7] = 100 mg/mL, 15% TBA, 3% PEG 400, NaOH 5.5 g/100 g (Table 3)
[8] = 100 mg/mL, 15% TBA, 6% Mannitol (Table 4)
[9] = 100 mg/mL, 30% TBA, 1% glycerol, standard lyophilization cycle (Table 1)
[10] = 100 mg/mL, 30% TBA, 2% PG, standard lyophilization cycle (Table 1)
[11] = 100 mg/mL, 30% TBA, 2% glycerol, standard lyophilization cycle (Table 1)
[12] = 100 mg/mL, 30% TBA, 3% PEG 400, NaOH 5.5 g/100 g (Table 3)
[13] = 100 mg/mL, 30% TBA, 3% PEG 400, standard lyophilization cycle (Table 1)
[14] = 100 mg/mL, 30% TBA, 3% glycerol, Standard cycle (Table 2)
[15] = 100 mg/mL, 30% TBA, 3.5% PEG 400, Standard cycle (Table 2)
[16] = 100 mg/mL, 30% TBA, 3.5% glycerol, Standard cycle (Table 2)
[17] = 100 mg/mL, 30% TBA, 4% PEG 400, BnOH 0.1 mg/vial, NaOH 5.5 g/100 g (Table 3)
[18] = 100 mg/mL, 30% TBA, 4% PEG 400, NaOH 5 g/100 g (Table 3)
[19] = 100 mg/mL, 30% TBA, 4% PEG 400, NaOH 5.5 g/100 g (Table 3)
[20] = 100 mg/mL, 30% TBA, 4% PEG 400, Standard cycle (Table 2)
[21] = 100 mg/mL, 30% TBA, 4% PEG 400, standard lyophilization cycle (Table 1)
[22] = 100 mg/mL, 30% TBA, 4% PEG 1000 (Table 4)
[23] = 100 mg/mL, 30% TBA, 4% PEG 2000 (Table 4)
[24] = 100 mg/mL, 30% TBA, 4% PEG 4000 (Table 4)
[25] = 100 mg/mL, 30% TBA, 4% PG, standard lyophilization cycle (Table 1)
[26] = 100 mg/mL, 30% TBA, 4% glycerol, Standard cycle (Table 2)
[27] = 100 mg/mL, 30% TBA, 4% glycerol, standard lyophilization cycle (Table 1)

With `CCc1c2c(nc3ccc(OC(=O)N4CCC(CCn5ccc6cc(-n7c(O)nnc7-c7cc(C(C)C)c(O)cc7O)ccc65)CC4)cc13)-c1cc3c(c(=O)n1C2)COC(=O)[C@]3(O)CC` [SDC-TRAP-0063, (S)-4,11-diethyl-4-hydroxy-3,14-dioxo-3,4,12,14-tetrahydro-1H-pyrano[3′,4′:6,7]indolizino[1,2-b]quinolin-9-yl 4-(2-(5-(3-(2,4-dihydroxy-5-isopropylphenyl)-5-hydroxy-4H-1,2,4-triazol-4-yl)-1H-indol-1-yl)ethyl)piperidine-1-carboxylate] the Solubility in water (Solubility in water) was “does not have good solubility in water”, the “Stability profile with 4% PEG-400” value ([1]; 4% of PEG-400) was “stability profile is acceptable” and the “Stability profile with glycerol as excipient” value ([1]; glycerol as excipient, compared with PEG-400) was “slightly worse stability profile”. For the same compound, the “pH above which equilibrium shifts toward open ring carboxylic acid form” value [2] was “around 9”, the “Residual Moisture” value [3] was 0.26% and the “Residual TBA” value [4, 7] was 3.3%. For the same compound, the “Residual TBA” value [4, 8] was 6.6%, the “Residual TBA” value ([4]; 100 mg/mL, 30% TBA, 0% PEG 400, 0% glycerol, Standard cycle, average (Table 2)) was 7% avg and the “Residual TBA” value ([4]; 100 mg/mL, 30% TBA, 0% PEG 400, BnOH 0 mg/vial, NaOH 0 g/100 g, average (Table 3)) was 7% avg. The “Residual TBA” value ([4]; 100 mg/mL, 30% TBA, 0% PEG 1000, 0% PEG 2000, 0% PEG 4000, 0% Mannitol, average (Table 4)) was 7% avg, the “Residual TBA” value [4, 9] was 7.1% and the “Residual TBA” value [4, 10] was 4.1%. The “Residual TBA” value [4, 11] was 5.2%, the “Residual TBA” value [4, 12] was 4.1% and the “Residual TBA” value [4, 13] was 3.6%. The “Residual TBA” value [4, 14] was 3.8%, the “Residual TBA” value [4, 15] was 3.3% and the “Residual TBA” value [4, 16] was 3.3%. The “Residual TBA” value ([4]; 100 mg/mL, 30% TBA, 4% PEG 400, 5% Mannitol (Table 5)) was 0.54, the “Residual TBA” value ([4]; 100 mg/mL, 30% TBA, 4% PEG 400, 7.5% Mannitol (Table 5)) was 1.36 and the “Residual TBA” value ([4]; 100 mg/mL, 30% TBA, 4% PEG 400, 10% Mannitol (Table 5)) was 2.22. For the same compound, the “Residual TBA” value [4, 17] was 2.4%, the “Residual TBA” value [4, 18] was 1.9% and the “Residual TBA” value [4, 19] was 2.2%. For the same compound, the “Residual TBA” value [4, 20] was 2.7%, the “Residual TBA” value [4, 21] was 2.0% and the “Residual TBA” value [4, 22] was 2.3%. The “Residual TBA” value [4, 23] was 2.2%, the “Residual TBA” value [4, 24] was 2.3% and the “Residual TBA” value [4, 25] was 1.5%. For the same compound, the “Residual TBA” value [4, 26] was 1.8%, the “Residual TBA” value [4, 27] was 1.2% and the “Residual TBA” value ([4]; 100 mg/mL, 30% TBA, 5% PEG 400, 5% Mannitol (Table 5)) was 0.11. The “Residual TBA” value ([4]; 100 mg/mL, 30% TBA, 5% PEG 400, 7.5% Mannitol (Table 5)) was 0.26, the “Residual TBA” value ([4]; 100 mg/mL, 30% TBA, 5% PEG 400, 10% Mannitol (Table 5)) was 0.74 and the “Residual TBA” value ([4]; 100 mg/mL, 30% TBA, 6% PEG 400, 5% Mannitol (Table 5), below the limit of quantitation of the method) was 0.05*. The “Residual TBA” value ([4]; 100 mg/mL, 30% TBA, 6% PEG 400, 7.5% Mannitol (Table 5), below the limit of quantitation of the method) was 0.09*, the “Residual TBA” value ([4]; 100 mg/mL, 30% TBA, 6% PEG 400, 10% Mannitol (Table 5)) was 0.16 and the “Residual TBA with 4% PEG-400” value ([4]; 4% of PEG-400) was 2.5-2.7%. The “Residual TBA” value ([4]; pre-lyophilization solution 100 mg/mL, 30% TBA, 0% PEG 400, 0% glycerol, 0% PG, standard lyophilization cycle, average) was 7% avg, the pH [5, 7] was 10.0 and the pH ([5]; 100 mg/mL, 15% TBA, 4% Mannitol (Table 4)) was 9.8. For the same compound, the pH [5, 8] was 9.8, the pH ([5]; 100 mg/mL, 30% TBA, 0% PEG 400, 0% glycerol, Standard cycle (Table 2)) was 10.1-10.3 and the pH ([5]; 100 mg/mL, 30% TBA, 0% PEG 400, BnOH 0 mg/vial, NaOH 0 g/100 g (Table 3)) was 10.1-10.3. For the same compound, the pH ([5]; 100 mg/mL, 30% TBA, 0% PEG 1000, 0% PEG 2000, 0% PEG 4000, 0% Mannitol (Table 4)) was 10.1-10.3, the pH [5, 9] was 10.2 and the pH [5, 10] was 10.2. For the same compound, the pH [5, 11] was 10.2, the pH [5, 12] was 9.9 and the pH [5, 13] was 10.1. It also gave a pH ([5]; 100 mg/mL, 30% TBA, 3% glycerol, No secondary drying (Table 2)) of 10.1, a pH [5, 14] of 10.1 and a pH ([5]; 100 mg/mL, 30% TBA, 3.5% PEG 400, No secondary drying (Table 2)) of 10.1. For the same compound, the pH [5, 15] was 10.0, the pH [5, 16] was 10.1 and the pH [5, 17] was 10.0. For the same compound, the pH [5, 18] was 9.5, the pH [5, 19] was 9.9 and the pH [5, 20] was 10.1. The pH [5, 21] was 10.1, the pH [5, 22] was 9.7 and the pH [5, 23] was 9.9. It also gave a pH [5, 24] of 9.8, a pH [5, 25] of 10.1 and a pH [5, 26] of 10.1. The pH [5, 27] was 10.2, the pH ([5]; pre-lyophilization solution 100 mg/mL, 30% TBA, 0% PEG 400, 0% glycerol, 0% PG, standard lyophilization cycle) was 10.1-10.3 and the “Residual TBA” value ([6]; 15% TBA, 4% Mannitol (Table 4)) was 6.0%. For the same compound, the “Residual TBA” value ([6]; 30% TBA, 3% glycerol, No secondary drying (Table 2)) was 4.0% and the “Residual TBA” value ([6]; 30% TBA, 3.5% PEG 400, No secondary drying (Table 2)) was 3.2%.
In the case of `CCc1c2c(nc3ccc(OC(=O)N4CCC(CCn5ccc6cc(-n7c(O)nnc7-c7cc(C(C)C)c(O)cc7O)ccc65)CC4)cc13)-c1cc([C@@](O)(CC)C(=O)[O-])c(CO)c(=O)n1C2.[Na+]` [SDC-TRAP-0063 sodium, Sodium (S)-2-(2-((4-(2-(5-(3-(2,4-dihydroxy-5-isopropylphenyl)-5-hydroxy-4H-1,2,4-triazol-4-yl)-1H-indol-1-yl)ethyl)piperidine-1-carbonyl)oxy)-12-ethyl-8-(hydroxymethyl)-9-oxo-9,11-dihydroindolizino[1,2-b]quinolin-7-yl)-2-hydroxybutanoate], the “Stability with PEG-400 addition” value ([1]; PEG-400 added as excipient) is reported as “no impact on the stability”, the “Stability with propylene glycol addition” value ([1]; propylene glycol added as excipient) is reported as “faster decay” and the “pH above which SDC-TRAP-0063 Sodium is the dominant form” value ([2]; manufacturing process) is reported as “approximately 9.3”.
